This note sets out measurements from US12116636B2, “Methods for evaluating tumor cell spheroids using 3D microfluidic cell culture device” (Dana-Farber Cancer Institute, Inc., priority 2017, dated 2024).

One assay deals with MC38 MDOTS. Description: Live/dead (AO/PI) staining of MDOTS in 3D microfluidic culture. It is filed as cell-based, murine. The conditions noted are these: Cmpd1 1 μM + αPD-1, 5 days; not significant vs single-agent PD-1. The protocol:
(§1) Fresh tumor specimens (murine and human patients) were received in media (DMEM) on ice and minced in a 10 cm dish (on ice) using sterile forceps and scalpel. Minced tumor was resuspended in DMEM (4.5 mM glucose, […] sodium pyruvate, 1:100 penicillin-streptomycin) (Coming CellGro, Manassas, VA)+10% FBS (Gemini Bio-Products, West Sacramento, CA), 100 U/mL collagenase type IV (Life Technologies, Carlsbad, CA), and 15 mM HEPES (Life Technologies, Carlsbad, CA), except for CT26 tumors that were prepared in RPMI. Samples were pelleted and resuspended in 10-20 mL media. Red blood cells were removed from visibly bloody samples using RBC Lysis Buffer (Boston Bio-Products, Ashland, MA). […]
Dual labeling was performed by loading microfluidic device with Nexcelom ViaStain™ (fluorescent cell viability dye) AO/PI Staining Solution (Nexcelom, CS2-0106). Following incubation with the dyes (20 minutes at room temperature in the dark), images were captured on a Nikon Eclipse 80i fluorescence microscope equipped with Z-stack (Prior) and CoolSNAP CCD camera (Roper Scientific). […] Live and dead cell quantitation was performed by measuring total cell area of each dye. […]

The subject of another assay is B16F10 lung metastases. In words: B16F10 tail vein injection model, lung metastases. The assay is classed as in vivo, mice. As to conditions: Compound 1 40 mg/kg daily 13 days ± anti-PD-L1 10 mg/kg. Here is the method: Combination studies were performed by vivoPharm (Hummelstown, PA, USA). All procedures used in the performance of these studies were carried out in accordance with vivoPharm's Standard Operating Procedures, with particular reference to US_SOPvP_EF0314 “General Procedures for Efficacy Studies.” CT26 colon carcinoma cells (1×10^6 cells/mouse in 100 μL, passage 2-3) were re-suspended in serum-free DMEM and implanted in the upper right flank of 11-12 week old female Balb/c mice (Charles River Laboratories). Mice were randomized into four groups of 10 using a matched pair distribution method based on tumor size for CT26. Treatment was initiated 12 days post-inoculation with mean tumor volume at start of dosing of 125.85 mm^3. Vehicle or Compound 1 (40 mg/kg) was administered by oral gavage daily for 26 days and isotype control or a reverse chimera anti-PD-L1 cloned from literature reports (e.g., Deng, R. et al. MAbs (2016), the content of which is incorporated herein by reference in entirety) and placed into a mouse IgG1 framework (10 mg/kg) was administered every 5 days for a total of six doses. Investigators were not blinded to treatment groups. […] Mice were scarified on Day 13 and lung metastases were quantified (small≤1 mm, medium>1 mm and ≤3 mm, large>3 mm). No large lung metastases were detected.

Assay [1] has as its system CT26 spheroids (lacking immune cells). Description: Cytokine profiling of cell line spheroids lacking immune cells. As to conditions: Day 1, 3, 6 vs vehicle. The assay is classed as cell-based, murine. Here is the method: as §1
Two multiplex assays were performed utilizing a bead-based immunoassay approach, the Bio-Plex Pro™ Human Cytokine 40-plex Assay (Cat #171AK99MR2) and Bio-Plex Pro™ Mouse Cytokine Panel 1, 23-plex (Cat #M60009RDPD) on a Bio-plex 200 system (Cat #171000201). […] Fold changes relative to the MDOT/PDOT control were calculated and plotted as log 2FC. Lower and upper limits of quantitation (LLOQ/ULOQ) were imputed from standard curves for cytokines above or below detection. […]

Take `N#Cc1cc(-c2ncnc(Nc3ccc(N4CCN(C5COC5)CC4)cc3)n2)ccc1OC1CCOCC1` [Compound 1, 5-(4-((4-(4-(oxetan-3-yl)piperazin-1-yl)phenyl)amino)-1,3,5-triazin-2-yl)-2-((tetrahydro-2H-pyran-4-yl)oxy)benzonitrile]: in the assay with MC38 MDOTS, the “ex vivo killing of MC38 MDOTS, combination treatment” value is recorded as “enhanced”. The “sensitization of B16F10 tail vein injection model (lung metastases)” value in the assay with B16F10 lung metastases is on record as “could not be sensitized”. Further, the “immune suppressive cytokine elaboration by CT26 cell line spheroids” value in assay [1] was “effectively blocked”.
